In patent US10617662B2, “Autophagy activation-induced compound for improving skin inflammation for aging” (INCOSPHARM CORPORATION, priority 2017, dated 2020):

What was measured:
[1] = tested on: psoriasis animal model induced by imiquimod 5% cream; assay: Psoriasis animal model, transepidermal water loss (TEWL); format: in vivo, BALB/c mice; conditions: increased by 5% imiquimod; applied for 5 days, 0.5% in ethanol or 0.5% cream; FIG. 17
Experimental: (§1) In order to confirm the psoriasis treatment effect by Compound 8 of the present invention, dorsal hair of 8-week-old BALB/c mice (female) was removed using hair removal cream (Veet®, Oxy Reckitt Benckiser, Cedex, France), and subsequently imiquimod 5% cream (Aldara®; 3M Pharmaceuticals, UK; 62.5 mg) was applied on the back and both ears of the mice twice in the morning and in the afternoon (Sensitization; Day 0). Then, after a barrier recovery period of 2 days, imiquimod 5% cream (62.5 mg/day) was applied repeatedly for 7 days (Induction stage; Day 2 -Day 8), thereby inducing the psoriasis animal model.
After inducing the psoriasis animal model, Compound 8 of the present invention dissolved in ethanol (0.5%) and cream containing Compound 8 of the present invention (The same composition as that of the cosmetic composition of Example 14 except that it contained 0.5% by weight of Compound 8) were applied on the back once in the morning for 5 days (Treatment Stage; Day 8-Day 12). An untreated control group and a disease control group (vehicle) were treated with cream not containing Compound 8 of the present invention (cosmetic composition of Comparative Example 2) and ethanol, and during the treatment period, imiquimod 5% cream was applied thereon every other day, thereby maintaining psoriasis. […]

[2] = tested on: ALOX12B (Arachidonate 12-lipoxygenase, 12R type); assay: RT-PCR of psoriasis-related gene ALOX12B; format: cell-based, human; conditions: HEKa cells, 20 uM, FIGS. 2 and 3
Experimental: (§2) A psoriasis-related genes were selected from the cDNA array result in which Compound 8 of the present invention was treated in HaCaT cells. In order to analyze whether Compound 8 has an effect on psoriasis alleviation, RT-PCR analysis for IL-36′ (interleukin 36 gamma), KLK7 (Kallikrein-related peptidase 7), OASL (2′-5′-Oligoadenylate Synthetase Like) and ALOX12B (Arachidonate 12-lipoxygenase, 12R type) which are very closely related to psoriasis was carried out. Further, KRT16 (Keratin 16), KRT6 (Keratin 6) and KRT1 (Keratin 1), known as psoriasis-related proliferation, differentiation markers were confirmed by a western blot analysis. As the specific experimental method, HEKa cells (Human Epidermal keratinocytes, adult), human-derived epidermal keratinocytes were seeded on a 24 well plate at a density of 1×10^5 cells, and cultured in an EpiLife medium (1× Human keratinocyte Growth supplement, 1× antibiotics) in an incubator under 37° C. and 5% CO2 for 24 hours. […]

Beclin-1 = assay: Western blot for Beclin-1 protein; format: cell-based, human; conditions: HaCaT cells; 20 uM dilution, 1 ml added to 1 ml medium; FIG. 1
Experimental: In order to analyze which gene expression is related to increased autophagy activation by Compound 8 of the present invention, a western blot analysis for Beclin-1 and ULK-1 (Serine/threonine-protein kinase-1) proteins which are closely related to autophagy activation was performed.
As a specific experimental method, HaCaT cells, human-derived keratinocytes were seeded on a 60Ø dish at a density of 3×10^5 cells, and cultured in DMEM (Dulbecco's Modified Eagle Media, Gibco BRL) in an incubator under 37° C. and 5% CO2 for 24 hours. Compound 8 of the present invention was dissolved in DMSO at a concentration of 10 mM each to be a concentrate, and diluted with a medium to be at a concentration of 20 uM. Then in a state where 1 ml of medium was first in each well, 1 ml of each diluted solution was added thereto for treatment, and cultured for a certain period, and after completing the culturing, the medium was removed, and then cells were disrupted with a SDS sample buffer, and each protein was separated by SDS-PAGE gel electrophoresis, and transferred to a PVDF membrane. […]

[3] = tested on: CXCL2 (Chemokine (C-X-C motif) ligand 2); assay: Cytokine gene expression, CXCL2, TNFα/IFN-γ induced inflammatory condition; format: cell-based, human; conditions: FIG. 8
IL-8 (interleukin-8) = assay: Cytokine gene expression, IL-8, IL-17A/TNF-α condition; format: cell-based, human; conditions: FIG. 9
[4] = tested on: psoriasis animal model induced by imiquimod 5% cream; assay: Psoriasis animal model, ear thickness; format: in vivo, BALB/c mice; conditions: ears treated together with imiquimod; digital caliper; FIG. 18
Experimental: as §1
There was no treatment on the left ear of the untreated control group, and the right ear was treated with cream not containing imiquimod and ethanol. The left ear of the experimental groups was treated only with imiquimod and ethanol, whereas the right ear of the experimental groups was treated with either Compound 8 or Compound 8 cream of the present invention together with imiquimod, and such method is specifically shown in FIG. 12.
When the animals were slaughtered, the thickness of the central part of both ears was measured using a digital caliper (Digital caliper, Marathon Inc. Belleville, ON, Canada).

Foxp3 (forkhead box P3) = assay: Expression of psoriasis-related transcription factor Foxp3 in induced inflammatory condition; format: cell-based, human; conditions: IL-17A/TNFα- or IL-17A/IFNγ-induced inflammatory condition
Experimental: [The source words this procedure for another target and says it was used here with some conditions changed.] as §2

KRT1 (Keratin 1) = assay: Western blot of differentiation marker KRT1; format: cell-based, human; conditions: FIG. 4
Experimental: as §2

Structure (SMILES): CCCCCCCCCCCCCCCC(=O)NCCCC[C@H](NC(=O)[C@H](CCCCN(CC(=O)O)CC(=O)O)N(CC(=O)O)CC(=O)O)C(=O)O [Compound 8]
- TEWL value [1]: remarkably reduced
- expression level of ALOX12B gene [2]: significantly decreased
- expression of Beclin-1 protein (Beclin-1): significantly increased
- expression level of CXCL2 [3]: reduced
- expression level of IL-8 (IL-8 (interleukin-8)): reduced
- thickness of the right (treated) ear compared with the left ear treated with 5% imiquimod and ethanol [4]: significant thickness reduction
- expression level of Foxp3 (Foxp3 (forkhead box P3)): reduced
- KRT1 (differentiation marker) level (KRT1 (Keratin 1)): increased
